Patent publication US8980911B2, “Heterocyclic compounds as protein kinase inhibitors” (Daiichi Sankyo Company, Limited, priority 2011, dated 2015)

Assays:
Assay type in all cases: biochemical
JAK1 = biological target: T1, JAK1 (Homo sapiens, UniProt P23458); experiment: In vitro enzyme assay (cell-free HTRF kinase assay), JAK1; conditions: catalytic domain aa 850-1154, GST-tag; ATP 60 μM, SRCtide 400 nM, reaction 120 min
T1 construct: JAK1 (aa 850-1154) and TYK2 (aa 871-1187) are expressed with an N-terminally fused GST-tag; GST (N); purchased Carna Bioscience, Inc; host or cells: baculovirus expression system
T1 sequence (P23458 850-1154): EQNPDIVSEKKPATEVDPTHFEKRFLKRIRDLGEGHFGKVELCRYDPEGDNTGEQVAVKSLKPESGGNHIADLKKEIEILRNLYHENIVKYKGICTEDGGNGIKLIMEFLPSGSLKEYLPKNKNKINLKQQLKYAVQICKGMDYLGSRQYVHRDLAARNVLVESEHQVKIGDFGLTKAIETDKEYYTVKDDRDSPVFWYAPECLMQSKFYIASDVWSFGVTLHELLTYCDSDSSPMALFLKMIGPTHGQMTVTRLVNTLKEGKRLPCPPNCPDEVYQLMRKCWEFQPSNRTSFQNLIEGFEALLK
Procedure: (§1) Kinase buffer [50 mM HEPES (pH 7.5), 1 mM EGTA, 10 mM MgCl2, 2 mM DTT and 0.01% Tween-20) was prepared and dilutions of a compound of formula (I) and other reagents were subsequently made in it. Two times concentrated compound of formula (I) solution: A compound of formula (I) was diluted to 100-fold final concentration in DMSO, followed by 50-fold dilution with Kinase buffer (1% DMSO final concentration). Four times concentrated Substrate/ATP mix solution: Biotin-SRCtide and ATP were diluted to 4-fold final concentration in Kinase buffer. Biotin-SRCtide solution (purchased from Anaspec) was mixed with ATP solution (1:1). Four times concentrated Enzyme solution: JAK1 or JAK2 or JAK3 or TYK2 enzyme [Human baculo virus expressed JAK1, JAK2, JAK3 and TYK2 were purchased from Carna Bioscience, Inc. All enzymes only contain the catalytic domain. JAK1 (aa 850-1154) and TYK2 (aa 871-1187) are expressed with an N-terminally fused GST-tag, and JAK2 and JAK3 with an N-terminally fused His-tag] was diluted to 4-fold final concentration in Kinase buffer and always kept on ice. Detection buffer: LANCE detection buffer (10 times concentrated) was diluted 10-fold in H2O. Four times concentrated stop solution: EDTA was diluted to a concentration of 40 mM in detection buffer. Four times concentrated ULight/Eu-antibody (from Perkin Elmer) mix solution: ULight-Streptavidin was diluted to a concentration of 100 nM (25 ng/mL final concentrations) and Eu-anti-phospho-Tyrosine (PT66) (from Perkin Elmer) was diluted to a concentration of 8 nM (2 ng/mL final concentration) in detection buffer.
(§2) Cell-free in vitro kinase assay was performed in 384 well plates. Two times concentrated compound solution (5 μL) was pipetted into a HTS 384SV Small Volume Plate. Four times concentrated Substrate/ATP mix (2.5 μL) solution was added along with 4 times concentrated Enzyme solution (2.5 μL). Plate was covered with TopSeal-A and incubated at room temperature for indicated time (Table 3). Four times concentrated Stop solution (5 μL, 10 mM final concentration) was added and incubated for 5 minutes at room temperature. Four times concentrated ULight/Eu-antibody mix solution (5 μL) was added and again plate was covered with TopSeal and incubated overnight at 4° C. TopSeal was removed and HTRF signal was measured at 615 nm and […] (excitation at 320 or 340 nm) on Tecan M1000 Multi mode plate reader. Ratio (665 nm/615 nm)×10^4 was calculated and IC50 values were deduced from Graph-pad prism 4.2.

JAK2 = biological target: T2, JAK2 (Homo sapiens, UniProt O60674); experiment: In vitro enzyme assay (cell-free HTRF kinase assay), JAK2; conditions: catalytic domain, His-tag; ATP 10 μM, SRCtide 25 nM, reaction 30 min
T2 construct: All enzymes only contain the catalytic domain; His (N); purchased Carna Bioscience, Inc; host or cells: baculovirus expression system
T2 sequence (O60674 849-1124 limits assumed): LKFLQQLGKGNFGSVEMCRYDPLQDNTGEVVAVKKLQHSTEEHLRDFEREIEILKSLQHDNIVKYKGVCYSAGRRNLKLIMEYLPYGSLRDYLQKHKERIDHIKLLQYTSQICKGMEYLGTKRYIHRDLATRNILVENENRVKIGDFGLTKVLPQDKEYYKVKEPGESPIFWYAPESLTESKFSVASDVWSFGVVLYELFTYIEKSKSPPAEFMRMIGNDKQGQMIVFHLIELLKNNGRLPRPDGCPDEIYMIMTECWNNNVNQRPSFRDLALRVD
Procedure: as §1, §2

JAK3 = biological target: T3, JAK3 (Homo sapiens, UniProt P52333); experiment: In vitro enzyme assay (cell-free HTRF kinase assay), JAK3; conditions: catalytic domain, His-tag; ATP 3 μM, SRCtide 100 nM, reaction 30 min
T3 construct: All enzymes only contain the catalytic domain; His (N); purchased Carna Bioscience, Inc; host or cells: baculovirus expression system
T3 sequence (P52333 822-1111 limits assumed): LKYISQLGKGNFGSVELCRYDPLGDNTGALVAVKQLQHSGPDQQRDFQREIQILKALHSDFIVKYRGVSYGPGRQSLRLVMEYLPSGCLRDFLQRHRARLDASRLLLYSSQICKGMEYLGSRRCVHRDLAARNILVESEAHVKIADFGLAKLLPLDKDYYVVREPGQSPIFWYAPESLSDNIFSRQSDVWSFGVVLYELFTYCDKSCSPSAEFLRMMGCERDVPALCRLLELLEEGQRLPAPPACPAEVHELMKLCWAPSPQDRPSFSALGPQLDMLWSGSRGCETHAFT
Procedure: as §1, §2

| IC50 (JAK1) | IC50 (JAK2) | IC50 (JAK3) | SMILES |
| --- | --- | --- | --- |
| < 500 nM | < 50 nM | < 50 nM | N#Cc1cc(Cl)c(C(=O)c2c[nH]c3c(NC(=O)C4CC4)nccc23)c(Cl)c1 [Compound No. 39, N-[3-(2,6-Dichloro-4-cyanobenzoyl)-1H-pyrrolo[2,3-c]pyridin-7-yl]cyclopropanecarboxamide] |
| < 1000 nM | < 500 nM | < 500 nM | CC(CO)NC(=O)c1cc(Cl)c(C(=O)n2ccc3c(NC(=O)C4CC4)nccc32)c(Cl)c1 (stereo not drawn) [Compound No. 151, 3,5-Dichloro-4-({4-[(cyclopropylcarbonyl)amino]-1H-pyrrolo[3,2-c]pyridin-1-yl}carbonyl)-N-(1-hydroxypropan-2-yl)benzamide] |
| < 500 nM | < 500 nM | < 500 nM | N#Cc1cc(Cl)c(C(=O)c2c[nH]c3cnccc23)c(Cl)c1 [Compound No. 6, 3,5-Dichloro-4-(1H-pyrrolo[2,3-c]pyridin-3-ylcarbonyl)benzonitrile] |
| < 500 nM | < 500 nM | < 500 nM | CN(C)CCNC(=O)c1cc(F)c(C(=O)c2c[nH]c3c(NC(=O)C4CC4)nccc23)c(F)c1 [Compound No. 63, 4-({7-[(Cyclopropylcarbonyl)amino]-1H-pyrrolo[2,3-c]pyridin-3-yl}carbonyl)-N-[2-(dimethylamino)ethyl]-3,5-difluorobenzamide] |
| < 500 nM | < 500 nM | < 500 nM | O=C(NCC1CC1)c1cc(Cl)c(C(=O)c2c[nH]c3c(NC(=O)C4CC4)nccc23)c(Cl)c1 [Compound No. 55, 3,5-Dichloro-4-({7-[(cyclopropylcarbonyl)amino]-1H-pyrrolo[2,3-c]pyridin-3-yl}carbonyl)-N-(cyclopropylmethyl)benzamide] |
| < 1000 nM | < 100 nM | < 1000 nM | O=C(c1c(Cl)cccc1Cl)c1c[nH]c2cnc(NC(=O)C3CC3)cc12 [Compound No. 18, N-[3-(2,6-Dichlorobenzoyl)-1H-pyrrolo[2,3-c]pyridin-5-yl]cyclopropanecarboxamide] |
| < 500 nM | < 500 nM | < 500 nM | O=C(NCc1ccccn1)c1cc(Cl)c(C(=O)n2ccc3c(NC(=O)C4CC4)nccc32)c(Cl)c1 [Compound No. 147, 3,5-Dichloro-4-({4-[(cyclopropylcarbonyl)amino]-1H-pyrrolo[3,2-c]pyridin-1-yl}carbonyl)-N-(pyridin-2-ylmethyl)benzamide] |
| < 1000 nM | < 500 nM | < 500 nM | O=C(NCCCO)c1cc(F)c(C(=O)c2c[nH]c3c(NC(=O)C4CC4)nccc23)c(F)c1 [Compound No. 62, 4-({7-[(Cyclopropylcarbonyl)amino]-1H-pyrrolo[2,3-c]pyridin-3-yl}carbonyl)-3,5-difluoro-N-(3-hydroxypropyl)benzamide] |

More lines, now with the values behind:

| SMILES | IC50 (JAK1) | IC50 (JAK2) | IC50 (JAK3) |
| --- | --- | --- | --- |
| CCNCc1cc(Cl)c(C(=O)n2ccc3c(NC(=O)C4CC4)nccc32)c(Cl)c1 [Compound No. 164, N-(1-{2,6-Dichloro-4-[(ethylamino)methyl]benzoyl}-1H-pyrrolo[3,2-c]pyridin-4-yl)cyclopropanecarboxamide] | < 500 nM | < 500 nM | < 500 nM |
| O=C(Nc1nccc2c1ccn2C(=O)c1c(Cl)cc(-c2cncnc2)cc1Cl)C1CC1 [Compound No. 89, N-{1-[2,6-Dichloro-4-(pyrimidin-5-yl)benzoyl]-1H-pyrrolo[3,2-c]pyridin-4-yl}cyclopropanecarboxamide] | < 1000 nM | < 50 nM | < 500 nM |
| CCOCCCNC(=O)c1cc(Cl)c(C(=O)c2c[nH]c3c(NC(=O)C4CC4)nccc23)c(Cl)c1 [Compound No. 56, 3,5-Dichloro-4-({7-[(cyclopropylcarbonyl)amino]-1H-pyrrolo[2,3-c]pyridin-3-yl}carbonyl)-N-(3-ethoxypropyl)benzamide] | < 500 nM | < 500 nM | < 500 nM |
| CCNC(=O)c1cc(Cl)c(C(=O)c2c[nH]c3c(NC(=O)C4CC4)nccc23)c(Cl)c1 [Compound No. 13, 3,5-Dichloro-4-({7-[(cyclopropylcarbonyl)amino]-1H-pyrrolo[2,3-c]pyridin-3-yl}carbonyl)-N-ethylbenzamide] | < 1000 nM | < 500 nM | < 500 nM |
| O=C(NCCOCCO)c1cc(Cl)c(C(=O)c2c[nH]c3c(NC(=O)C4CC4)nccc23)c(Cl)c1 [Compound No. 29, 3,5-Dichloro-4-({7-[(cyclopropylcarbonyl)amino]-1H-pyrrolo[2,3-c]pyridin-3-yl}carbonyl)-N-[2-(2-hydroxyethoxy)ethyl]benzamide] | < 1000 nM | < 1000 nM | < 500 nM |
| N#Cc1cc(Cl)c(C(=O)n2ccc3cnc(NC(=O)C4CC4)cc32)c(Cl)c1 [Compound No. 137, N-[1-(2,6-dichloro-4-cyanobenzoyl)-1H-pyrrolo[3,2-c]pyridin-6-yl]cyclopropanecarboxamide] | < 500 nM | < 50 nM | < 500 nM |
| CN(CCO)C(=O)Nc1cc(Cl)c(C(=O)n2ccc3c(NC(=O)C4CC4)nccc32)c(Cl)c1 [Compound No. 112, N-[1-(2,6-Dichloro-4-{[(2-hydroxyethyl)(methyl)carbamoyl]amino}benzoyl)-1H-pyrrolo[3,2-c]pyridin-4-yl]cyclopropanecarboxamide] | < 1000 nM | < 500 nM | < 500 nM |
| N#Cc1cc(F)c(C(=O)c2c[nH]c3c(NC(=O)C4CC4)nccc23)c(F)c1 [Compound No. 51, N-[3-(4-Cyano-2,6-difluorobenzoyl)-1H-pyrrolo[2,3-c]pyridin-7-yl]cyclopropanecarboxamide] | < 500 nM | < 100 nM | < 50 nM |
| O=C(NCC1CCCNC1)c1cc(Cl)c(C(=O)n2ccc3c(NC(=O)C4CC4)nccc32)c(Cl)c1 (stereo not drawn) [Compound No. 171, 3,5-Dichloro-4-({4-[(cyclopropylcarbonyl)amino]-1H-pyrrolo[3,2-c]pyridin-1-yl}carbonyl)-N-(piperidin-3-ylmethyl)benzamide] | < 500 nM | < 100 nM | < 100 nM |
| CCNC(=O)Nc1cc(Cl)c(C(=O)n2ccc3c(NC(=O)C4CC4)nccc32)c(Cl)c1 [Compound No. 103, N-(1-{2,6-Dichloro-4-[(ethylcarbamoyl)amino]benzoyl}-1H-pyrrolo[3,2-c]pyridin-4-yl)cyclopropanecarboxamide] | < 1000 nM | < 500 nM | < 500 nM |
| CC(C)NC(=O)c1cc(Cl)c(C(=O)n2ccc3c(NC(=O)C4CC4)nccc32)c(Cl)c1 [Compound No. 107, 3,5-Dichloro-4-({4-[(cyclopropylcarbonyl)amino]-1H-pyrrolo[3,2-c]pyridin-1-yl}carbonyl)-N-(propan-2-yl)benzamide] | < 500 nM | < 500 nM | < 500 nM |
| CNC(=O)c1cc(Cl)c(C(=O)c2c[nH]c3c(NC(=O)C4CC4)nccc23)c(Cl)c1 [Compound No. 12, 3,5-Dichloro-4-({7-[(cyclopropylcarbonyl)amino]-1H-pyrrolo[2,3-c]pyridin-3-yl}carbonyl)-N-methylbenzamide] | < 500 nM | < 500 nM | < 100 nM |
| O=C(NCCF)c1cc(F)c(C(=O)c2c[nH]c3c(NC(=O)C4CC4)nccc23)c(F)c1 [Compound No. 59, 4-({7-[(Cyclopropylcarbonyl)amino]-1H-pyrrolo[2,3-c]pyridin-3-yl}carbonyl)-3,5-difluoro-N-(2-fluoroethyl)benzamide] | < 500 nM | < 500 nM | < 500 nM |
| O=C(NCC1CC1)c1cc(Cl)c(C(=O)n2ccc3c(NC(=O)C4CC4)nccc32)c(Cl)c1 [Compound No. 170, 3,5-Dichloro-4-({4-[(cyclopropylcarbonyl)amino]-1H-pyrrolo[3,2-c]pyridin-1-yl}carbonyl)-N-(cyclopropylmethyl)benzamide] | < 500 nM | < 1000 nM | < 1000 nM |
